Structures can show the parent of a compound that is named as a salt.
Legend:
DLK = target: T1, DLK (Homo sapiens, UniProt Q12852); test: LZK and DLK Inhibition Assay (competition binding to liganded affinity beads, qPCR readout): DLK; conditions: kinase produced in HEK-293 cells, 11-point 3-fold dilution series
T1 construct: made in house; host or cells: HEK-293 cells
T1 sequence (Q12852 1-859): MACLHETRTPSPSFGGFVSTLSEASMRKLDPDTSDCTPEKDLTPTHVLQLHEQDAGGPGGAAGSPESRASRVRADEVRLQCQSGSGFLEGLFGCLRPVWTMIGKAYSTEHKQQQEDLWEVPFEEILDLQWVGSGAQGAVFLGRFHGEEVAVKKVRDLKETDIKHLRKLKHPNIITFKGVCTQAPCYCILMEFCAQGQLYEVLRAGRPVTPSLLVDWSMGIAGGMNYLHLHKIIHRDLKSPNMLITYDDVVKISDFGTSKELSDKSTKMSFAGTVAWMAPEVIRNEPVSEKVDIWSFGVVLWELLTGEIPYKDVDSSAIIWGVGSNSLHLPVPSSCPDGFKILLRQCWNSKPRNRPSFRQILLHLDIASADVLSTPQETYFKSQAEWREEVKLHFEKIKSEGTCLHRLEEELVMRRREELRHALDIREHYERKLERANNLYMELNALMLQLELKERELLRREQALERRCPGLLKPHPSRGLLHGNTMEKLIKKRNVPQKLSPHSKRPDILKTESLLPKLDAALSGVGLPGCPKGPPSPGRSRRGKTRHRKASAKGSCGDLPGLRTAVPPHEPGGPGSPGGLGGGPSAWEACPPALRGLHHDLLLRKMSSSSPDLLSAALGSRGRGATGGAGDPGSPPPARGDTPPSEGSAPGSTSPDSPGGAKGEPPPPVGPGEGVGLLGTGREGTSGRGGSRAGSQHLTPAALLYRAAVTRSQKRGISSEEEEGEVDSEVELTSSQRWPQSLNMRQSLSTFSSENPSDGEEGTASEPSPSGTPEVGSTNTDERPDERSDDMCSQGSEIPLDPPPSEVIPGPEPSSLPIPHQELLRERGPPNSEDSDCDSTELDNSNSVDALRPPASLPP
Procedure: (§1) The kinases were produced in HEK-293 cells and subsequently tagged with DNA for qPCR detection. Streptavidin-coated magnetic beads were treated with biotinylated small molecule ligands for 30 minutes at room temperature to generate affinity resins for the kinase assays. The liganded beads were blocked with excess biotin and washed with blocking buffer (SeaBlock (Pierce), 1% BSA, 0.05% Tween 20, 1 mM DTT) to remove unbound ligand and to reduce non-specific binding. Binding reactions were assembled by combining LZK and DLK kinases, liganded affinity beads, and test compounds in 1× binding buffer (20% SeaBlock, 0.17×PBS, 0.05% Tween 20, 6 mM DTT). Test compounds were prepared as 111× stocks in 100% DMSO. Kds were determined using an 11-point 3-fold compound dilution series with three DMSO control points. All compounds for Kd measurements are distributed by acoustic transfer (non-contact dispensing) in 100% DMSO. The compounds were then diluted directly into the assays such that the final concentration of DMSO was 0.9%. All reactions performed in polypropylene 384-well plate. Each was a final volume of 0.02 mL. The assay plates were incubated at room temperature with shaking for 1 hour and the affinity beads were washed with wash buffer (lx PBS, 0.05% Tween 20). The beads were then re-suspended in elution buffer (1×PBS, 0.05% Tween 20, 0.5 μM nonbiotinylated affinity ligand) and incubated at room temperature with shaking for 30 minutes. The kinase concentration in the eluates was measured by qPCR.

LZK = target: T2, LZK (Homo sapiens, UniProt O43283); test: LZK and DLK Inhibition Assay (competition binding to liganded affinity beads, qPCR readout): LZK; conditions: kinase produced in HEK-293 cells, 11-point 3-fold dilution series
T2 construct: made in house; host or cells: HEK-293 cells
T2 sequence (O43283 1-966): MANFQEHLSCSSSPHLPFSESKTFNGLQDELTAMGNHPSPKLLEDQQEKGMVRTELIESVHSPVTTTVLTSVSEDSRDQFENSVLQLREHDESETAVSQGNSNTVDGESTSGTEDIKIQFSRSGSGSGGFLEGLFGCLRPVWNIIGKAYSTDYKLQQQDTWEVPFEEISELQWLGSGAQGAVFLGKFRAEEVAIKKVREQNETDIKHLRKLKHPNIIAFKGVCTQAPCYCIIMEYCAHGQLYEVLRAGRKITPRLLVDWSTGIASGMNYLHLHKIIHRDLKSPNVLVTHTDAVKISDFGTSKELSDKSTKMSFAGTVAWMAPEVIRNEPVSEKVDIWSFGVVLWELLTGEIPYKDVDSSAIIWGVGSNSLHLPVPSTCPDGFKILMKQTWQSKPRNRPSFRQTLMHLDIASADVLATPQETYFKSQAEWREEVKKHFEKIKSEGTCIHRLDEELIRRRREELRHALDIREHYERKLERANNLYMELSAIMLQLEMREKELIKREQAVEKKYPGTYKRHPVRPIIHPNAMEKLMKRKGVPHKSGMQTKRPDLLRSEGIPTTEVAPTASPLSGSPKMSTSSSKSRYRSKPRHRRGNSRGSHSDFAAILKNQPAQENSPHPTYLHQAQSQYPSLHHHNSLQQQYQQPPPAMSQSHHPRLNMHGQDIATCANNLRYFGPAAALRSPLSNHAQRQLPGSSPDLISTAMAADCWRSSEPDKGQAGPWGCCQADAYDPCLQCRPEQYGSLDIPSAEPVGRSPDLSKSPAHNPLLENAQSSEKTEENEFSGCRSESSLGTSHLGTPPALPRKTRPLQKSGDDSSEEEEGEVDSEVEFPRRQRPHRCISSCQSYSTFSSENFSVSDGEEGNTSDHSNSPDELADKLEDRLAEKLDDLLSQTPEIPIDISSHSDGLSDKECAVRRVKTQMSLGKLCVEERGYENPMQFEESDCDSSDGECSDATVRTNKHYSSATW
Procedure: as §1

IC50 (DLK) [µM] | IC50 (LZK) [µM] | Structure (SMILES)
1 to 10 | 1 to 10 | Fc1c(N2CC3CC2CN3)cc(Nc2ccc(C(F)F)cn2)nc1N1CCOCC1 (stereo not shown) [Compound 4, 4-(2,5-Diazabicyclo[2.2.1]heptan-2-yl)-N-(5-(difluoromethyl)pyridin-2-yl)-5-fluoro-6-morpholinopyridin-2-amine di-TFA salt]
≤ 0.1 | ≤ 0.1 | Nc1c(C2CCN(CC3CC3)CC2)cc(Nc2cnc(C3CC3)cn2)nc1N1CC2CC2C1 (stereo not shown) [Compound 9, 6-(3-azabicyclo[3.1.0]hexan-3-yl)-4-(1-(cyclopropylmethyl)piperidin-4-yl)-N2-(5-cyclopropylpyrazin-2-yl)pyridine-2,5-diamine 2,2,2-trifluoroacetate]
≤ 0.1 | 0.1 to 1 | Fc1c(C2CCN(CC3CC3)CC2)cc(N2CC3CC3C2)nc1Nc1cnc(C2CC2)cn1 (stereo not shown) [Compound 2, N-(6-(3-Azabicyclo[3.1.0]hexan-3-yl)-4-(1-(cyclopropylmethyl)piperidin-4-yl)-3-fluoropyridin-2-yl)-5-cyclopropylpyrazin-2-amine]
1 to 10 | 1 to 10 | Clc1c(C2CCN(CC3CC3)CC2)cc(Nc2cnc(C3CC3)cn2)nc1N1CC2CC2C1 (stereo not shown) [Compound 7, N-(6-(3-Azabicyclo[3.1.0]hexan-3-yl)-5-chloro-4-(1-(cyclopropylmethyl)piperidin-4-yl)pyridin-2-yl)-5-cyclopropylpyrazin-2-amine TFA salt]

The remaining lines, values behind:

Structure (SMILES) | IC50 (DLK) [µM] | IC50 (LZK) [µM]
Fc1c(C2CCN(CC3CC3)CC2)cc(Nc2cnc(C3CC3)cn2)nc1N1CC2CC2C1 (stereo not shown) [Compound 1, N-(6-(3-Azabicyclo[3.1.0]hexan-3-yl)-4-(1-(cyclopropylmethyl)piperidin-4-yl)-5-fluoropyridin-2-yl)-5-cyclopropylpyrazin-2-amine] | ≤ 0.1 | ≤ 0.1
Fc1c(N2CC3CC2CN3)cc(Nc2ccc(C(F)(F)F)cn2)nc1N1CCOCC1 (stereo not shown) [Compound 6, 4-(2,5-Diazabicyclo[2.2.1]heptan-2-yl)-5-fluoro-6-morpholino-N-(5-(trifluoromethyl)pyridin-2-yl)pyridin-2-amine] | 1 to 10 | 1 to 10
Fc1c(N2CCNCC2)cc(Nc2ccc(C(F)(F)F)cn2)nc1N1CCOCC1 [Compound 5, 5-Fluoro-6-morpholino-4-(piperazin-1-yl)-N-(5-(trifluoromethyl)pyridin-2-yl)pyridin-2-amine] | 1 to 10 | 0.1 to 1
Fc1c(N2CCNCC2)cc(Nc2ccc(C(F)F)cn2)nc1N1CCOCC1 [Compound 3, N-(5-(Difluoromethyl)pyridin-2-yl)-5-fluoro-6-morpholino-4-(piperazin-1-yl)pyridin-2-amine di-TFA salt] | 0.1 to 1 | 0.1 to 1
Fc1c(N2CCNCC2)cc(Nc2cnc(C3CC3)cn2)nc1N1CCOCC1 [Compound 10, 5-Cyclopropyl-N-(5-fluoro-6-morpholino-4-(piperazin-1-yl)pyridin-2-yl)pyrazin-2-amine] | – | ≤ 0.1
N#Cc1c(C2CCN(CC3CC3)CC2)cc(Nc2cnc(C3CC3)cn2)nc1N1CC2CC2C1 (stereo not shown) [Compound 8, 2-(3-Azabicyclo[3.1.0]hexan-3-yl)-4-(1-(cyclopropylmethyl)piperidin-4-yl)-6-((5-cyclopropylpyrazin-2-yl)amino)nicotinonitrile formic acid salt] | ≤ 0.1 | ≤ 0.1

Reference: patent publication US20260242351A1, “LZK INHIBITORS” (Uereka Biosciences, Inc., priority 2023, published 2026)
